# Test results published in PubChem BioAssay (NCI).
#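 Abbreviation: GI50, concentration required for 50% inhibition of growth. TGI denotes the concentration required for complete inhibition of growth.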
# How the values were obtained:
# Test in all cases: NCI tumour cell line growth inhibition, 384-well format
# NCI-H226 lung = tested on: NCI-H226 lung
# NCI-H23 lung = tested on: NCI-H23 lung
# NCI-H322M lung = tested on: NCI-H322M lung
# NCI-H460 NSCLC = tested on: NCI-H460 NSCLC
# NCI-H522 lung = tested on: NCI-H522 lung
# NCI/ADR-RES ovarian = tested on: NCI/ADR-RES ovarian
# OVCAR-3 ovarian = tested on: OVCAR-3 ovarian
# OVCAR-4 ovarian = tested on: OVCAR-4 ovarian
# OVCAR-5 ovarian = tested on: OVCAR-5 ovarian
# OVCAR-8 ovarian = tested on: OVCAR-8 ovarian
# PC-3 prostate = tested on: PC-3 prostate
# RPMI-8226 leukemia = tested on: RPMI-8226 leukemia
# SF-268 CNS = tested on: SF-268 CNS
# SF-295 CNS = tested on: SF-295 CNS
# SF-539 CNS = tested on: SF-539 CNS
# SK-MEL-28 melanoma = tested on: SK-MEL-28 melanoma
# SK-MEL-5 melanoma = tested on: SK-MEL-5 melanoma
# SK-OV-3 ovarian = tested on: SK-OV-3 ovarian
# SN12C renal = tested on: SN12C renal
# SNB-19 CNS = tested on: SNB-19 CNS
# SNB-75 CNS = tested on: SNB-75 CNS
# SW-620 colon = tested on: SW-620 colon
# T-47D breast = tested on: T-47D breast
# TK-10 renal = tested on: TK-10 renal
# U251 glioblastoma = tested on: U251 glioblastoma
# UACC-257 melanoma = tested on: UACC-257 melanoma
# UACC-62 melanoma = tested on: UACC-62 melanoma
# UO-31 renal = tested on: UO-31 renal
compound,measurement,setting,value
CC1(C)CC(=O)c2c(C(F)(F)F)nn(-c3ccc(C(N)=O)c(NC4CCC(OC(=O)CN)CC4)c3)c2C1 (stereo not given),TGI,NCI-H226 lung,229 nM
same,GI50,NCI-H23 lung,21.2 nM
same,TGI,NCI-H23 lung,68.3 nM
same,GI50,NCI-H322M lung,44.2 nM
same,TGI,NCI-H322M lung,20800 nM
same,GI50,NCI-H460 NSCLC,22.1 nM
same,TGI,NCI-H460 NSCLC,57.3 nM
same,GI50,NCI-H522 lung,21.2 nM
same,TGI,NCI-H522 lung,49.3 nM
same,GI50,NCI/ADR-RES ovarian,2350 nM
same,TGI,NCI/ADR-RES ovarian,6770 nM
same,GI50,OVCAR-3 ovarian,25.3 nM
same,TGI,OVCAR-3 ovarian,88.5 nM
same,GI50,OVCAR-4 ovarian,17100 nM
same,TGI,OVCAR-4 ovarian,> 100000 nM
same,GI50,OVCAR-5 ovarian,53.6 nM
same,TGI,OVCAR-5 ovarian,30200 nM
same,GI50,OVCAR-8 ovarian,21.9 nM
same,TGI,OVCAR-8 ovarian,48.2 nM
same,GI50,PC-3 prostate,33.6 nM
same,TGI,PC-3 prostate,135 nM
same,GI50,RPMI-8226 leukemia,51.2 nM
same,TGI,RPMI-8226 leukemia,241 nM
same,GI50,SF-268 CNS,12.2 nM
same,TGI,SF-268 CNS,36.5 nM
same,GI50,SF-295 CNS,37.3 nM
same,TGI,SF-295 CNS,140 nM
same,GI50,SF-539 CNS,18.6 nM
same,TGI,SF-539 CNS,43.1 nM
same,GI50,SK-MEL-28 melanoma,46.5 nM
same,TGI,SK-MEL-28 melanoma,19300 nM
same,GI50,SK-MEL-5 melanoma,39.6 nM
same,TGI,SK-MEL-5 melanoma,14000 nM
same,GI50,SK-OV-3 ovarian,41.5 nM
same,TGI,SK-OV-3 ovarian,29500 nM
same,GI50,SN12C renal,29.6 nM
same,TGI,SN12C renal,98.8 nM
same,GI50,SNB-19 CNS,47.5 nM
same,TGI,SNB-19 CNS,30000 nM
same,GI50,SNB-75 CNS,112 nM
same,TGI,SNB-75 CNS,506 nM
same,GI50,SW-620 colon,25.8 nM
same,TGI,SW-620 colon,79.4 nM
same,GI50,T-47D breast,19.5 nM
same,TGI,T-47D breast,65 nM
same,GI50,TK-10 renal,51 nM
same,TGI,TK-10 renal,5310 nM
same,GI50,U251 glioblastoma,30.4 nM
same,TGI,U251 glioblastoma,95.2 nM
same,GI50,UACC-257 melanoma,52.8 nM
same,TGI,UACC-257 melanoma,21200 nM
same,GI50,UACC-62 melanoma,29.7 nM
same,TGI,UACC-62 melanoma,129 nM
same,GI50,UO-31 renal,119 nM
same,TGI,UO-31 renal,16300 nM
